According to patent US12653186B2, “[(1-phenyl-5-(heteroaryl)-1H-1,2,4-triazol-3-yl)oxy] acetic acid derivatives as safeners for the protection of useful plants and crop plants” (BAYER AKTIENGESELLSCHAFT, priority 2020, dated 2026):

Tests used:
summer wheat (TRZAS) = assay: Reduction of damage by mesosulfuron-methyl on summer wheat (safener action, greenhouse, post-emergence); format: in vivo, summer wheat (TRZAS; cv. Triso); design: key: 0: no reduction in damage (appearance corresponding to the herbicide control); 1: slight reduction in damage; 2: distinct reduction in damage; 3: significant reduction in damage; 4: complete reduction in damage (appearance corresponding to the untreated control); conditions: then mesosulfuron-methyl 40-60 g/ha, visual assessment 9-13 days after application
Protocol: (§1) 2.1 Relative Action of Selected Compounds of the Invention Using the Example of Reduction of Damage by Mesosulfuron-Methyl on Summer Wheat (TRZAS) The seeds of the crop plants to be treated are laid out in sandy loam in plastic pots (diameter ˜4 cm), covered with soil and grown in a greenhouse under good conditions for germination and growth. The trial plants were treated at the early leaf stage (BBCH10-BBCH12). In the course of this, the inventive compounds of the general formula (I) formulated in the form of wettable powders (WP) were sprayed onto the above-ground parts of the plants as an aqueous suspension with a water application rate corresponding to 800 l/ha with addition of wetting agent (e.g. 0.2% Genapol-LRO or 0.2% Mero) in the specified dose. This was followed by the application of the herbicide. For this purpose, mesosulfuron-methyl, formulated in the form of water-dispersible granules (WG), was sprayed onto the above-ground parts of the plants in the form of an aqueous dispersion with a water application rate corresponding to 800 l/ha with addition of wetting agent (e.g. 0.2% Genapol-LRO or 1 l/ha Biopower) in a dose of 40-60 g/ha. The dose of the herbicide was chosen here such that it causes visually apparent damage (min. 30%, max. 75%) compared to untreated crop plants at the evaluation time on a control group of crop plants without safener treatment that were included in the same trial. After application, the plants were cultivated under good growth conditions in a greenhouse. 9-13 days after application, the efficacy of the test compounds was assessed visually. For this purpose, the appearance of the plants treated with the test compound and herbicide was compared to the corresponding herbicide controls (without safener; with clearly visible damage) and the untreated controls (without damage). The damage-reducing effect of the test compounds was expressed here in graded efficacy codes according to the following scheme: • 0: no reduction in damage (appearance corresponding to the herbicide control) • 1: slight reduction in damage • 2: distinct reduction in damage • 3: significant reduction in damage • 4: complete reduction in damage (appearance corresponding to the untreated control) The trials show clear efficacy of the inventive compounds selected by way of example with regard to the reduction in damage to the summer wheat crop plant (TRZAS; cv. Triso) caused by the herbicide mesosulfuron-methyl: […]

summer barley (HORVS) = assay: Reduction of damage by mesosulfuron-methyl on summer barley (safener action, greenhouse, post-emergence); format: in vivo, summer barley (HORVS; cv. Montoya); design: key: 0: no reduction in damage (appearance corresponding to the herbicide control); 1: slight reduction in damage; 2: distinct reduction in damage; 3: significant reduction in damage; 4: complete reduction in damage (appearance corresponding to the untreated control); conditions: then mesosulfuron-methyl 40-60 g/ha, visual assessment 9-13 days after application, 2 repeats
Protocol: as §1, with “2.2 Relative Action” for “2.1 Relative Action”, “on Summer Barley (HORVS) The seeds” for “on Summer Wheat (TRZAS) The seeds”, “expressed here separately for 2 repeats in graded” for “expressed here in graded”, “the summer barley crop plant” for “the summer wheat crop plant”, “crop plant (HORVS; cv. Montoya)” for “crop plant (TRZAS; cv. Triso)”, “(HORVS; cv. Montoya) caused by” for “(TRZAS; cv. Triso) caused by”

COC(=O)COc1nc(-c2ccc(Cl)cn2)n(-c2ccc(Cl)cc2F)n1 [I.28-49]
Efficacy of the safener (efficacy code) (summer wheat (TRZAS); safener 100 g/ha): 2 | Efficacy of the safener (efficacy code) (summer barley (HORVS); safener 100 g/ha): 2

CCOC(=O)COc1nc(-c2ccc(F)cn2)n(-c2ccc(Cl)cc2)n1 [I.32-7]
Efficacy of the safener (efficacy code) (summer wheat (TRZAS); safener 100 g/ha): 2 | Efficacy of the safener (efficacy code) (summer barley (HORVS); safener 100 g/ha): 2-3

O=C(O)COc1nc(-c2ccc(F)cn2)n(-c2ccc(F)cc2)n1 [I.33-4]
Efficacy of the safener (efficacy code) (summer wheat (TRZAS); safener 100 g/ha): 2

CCOC(=O)COc1nc(-c2ccc(Cl)cn2)n(-c2ccc(F)cc2F)n1 [I.29-38]
Efficacy of the safener (efficacy code) (summer wheat (TRZAS); safener 100 g/ha): 2 | Efficacy of the safener (efficacy code) (summer barley (HORVS); safener 100 g/ha): 2

COC(=O)COc1nc(-c2ccncc2Cl)n(-c2ccc(Cl)cc2F)n1 [I.43-49]
Efficacy of the safener (efficacy code) (summer barley (HORVS); safener 100 g/ha): 2

COC(=O)COc1nc(-c2ccc(F)cn2)n(-c2ccc(F)cc2F)n1 [I.31-38]
Efficacy of the safener (efficacy code) (summer wheat (TRZAS); safener 100 g/ha): 2

COCCOC(=O)COc1nc(-c2ccc(Cl)cn2)n(-c2ccc(F)cc2F)n1 [I.73-38]
Efficacy of the safener (efficacy code) (summer barley (HORVS); safener 100 g/ha): 2-3

COC(=O)COc1nc(-c2ccc(Cl)cn2)n(-c2ccc(F)cc2F)n1 [I.28-38, Methyl {[5-(5-chloropyridin-2-yl)-1-(2,4-difluorophenyl)-1H-1,2,4-triazol-3-yl]oxy}acetate]
Efficacy of the safener (efficacy code) (summer barley (HORVS); safener 100 g/ha): 2

O=C(COc1nc(-c2ccc(Cl)cn2)n(-c2ccc(F)cc2F)n1)OCC1CCCO1 (centres unmarked) [I.68-38]
Efficacy of the safener (efficacy code) (summer wheat (TRZAS); safener 100 g/ha): 2 | Efficacy of the safener (efficacy code) (summer barley (HORVS); safener 100 g/ha): 2

CCOC(=O)COc1nc(-c2ccc(F)cn2)n(-c2ccccc2F)n1 [I.32-2]
Efficacy of the safener (efficacy code) (summer wheat (TRZAS); safener 100 g/ha): 2

O=C(COc1nc(-c2ccc(Cl)cn2)n(-c2ccc(F)cc2F)n1)OCC1OCCO1 [I.70-38]
Efficacy of the safener (efficacy code) (summer barley (HORVS); safener 100 g/ha): 2

COC(=O)COc1nc(-c2ccc(F)cn2)n(-c2ccc(F)cc2Cl)n1 [I.31-48]
Efficacy of the safener (efficacy code) (summer wheat (TRZAS); safener 100 g/ha): 2 | Efficacy of the safener (efficacy code) (summer barley (HORVS); safener 100 g/ha): 2

COC(=O)COc1nc(-c2ccc(F)cn2)n(-c2ccc(Cl)cc2F)n1 [I.31-49]
Efficacy of the safener (efficacy code) (summer wheat (TRZAS); safener 100 g/ha): 2 | Efficacy of the safener (efficacy code) (summer barley (HORVS); safener 100 g/ha): 2

O=C(COc1nc(-c2ccc(Cl)cn2)n(-c2ccc(F)cc2F)n1)OCC1CCOC1 (centres unmarked) [I.69-38]
Efficacy of the safener (efficacy code) (summer barley (HORVS); safener 100 g/ha): 2-3

CCOC(=O)COc1nc(-c2ccc(F)cn2)n(-c2ccc(F)cc2F)n1 [I.32-38]
Efficacy of the safener (efficacy code) (summer wheat (TRZAS); safener 100 g/ha): 2 | Efficacy of the safener (efficacy code) (summer barley (HORVS); safener 100 g/ha): 2

COC(=O)COc1nc(-c2ncccc2F)n(-c2ccccc2)n1 [I.64-1]
Efficacy of the safener (efficacy code) (summer wheat (TRZAS); safener 100 g/ha): 2 | Efficacy of the safener (efficacy code) (summer wheat (TRZAS); safener 500 g/ha): 2 | Efficacy of the safener (efficacy code) (summer barley (HORVS); safener 500 g/ha): 2

O=C(O)COc1nc(-c2ccc(Cl)cn2)n(-c2ccc(F)cc2F)n1 [I.30-38, {[5-(5-Chloropyridin-2-yl)-1-(2,4-difluorophenyl)-1H-1,2,4-triazol-3-yl]oxy}acetic acid]
Efficacy of the safener (efficacy code) (summer wheat (TRZAS); safener 100 g/ha): 2 | Efficacy of the safener (efficacy code) (summer barley (HORVS); safener 100 g/ha): 2

COC(=O)COc1nc(-c2ncccc2F)n(-c2ccc(Cl)cc2F)n1 [I.64-49]
Efficacy of the safener (efficacy code) (summer wheat (TRZAS); safener 500 g/ha): 2 | Efficacy of the safener (efficacy code) (summer barley (HORVS); safener 500 g/ha): 2

COC(=O)CCOC(=O)COc1nc(-c2ccc(Cl)cn2)n(-c2ccc(F)cc2F)n1 [I.67-38]
Efficacy of the safener (efficacy code) (summer wheat (TRZAS); safener 100 g/ha): 2

COC(=O)COc1nc(-c2ccc(F)cn2)n(-c2ccc(Cl)cc2)n1 [I.31-7]
Efficacy of the safener (efficacy code) (summer wheat (TRZAS); safener 100 g/ha): 2 | Efficacy of the safener (efficacy code) (summer barley (HORVS); safener 100 g/ha): 2

CCOC(=O)COc1nc(-c2ccc(F)cn2)n(-c2ccc(F)cc2)n1 [I.32-4]
Efficacy of the safener (efficacy code) (summer wheat (TRZAS); safener 100 g/ha): 2

CCOC(=O)COc1nc(-c2ccc(F)cn2)n(-c2ccc(Cl)cc2F)n1 [I.32-49]
Efficacy of the safener (efficacy code) (summer wheat (TRZAS); safener 100 g/ha): 2 | Efficacy of the safener (efficacy code) (summer barley (HORVS); safener 100 g/ha): 2

O=C(COc1nc(-c2ccc(Cl)cn2)n(-c2ccc(F)cc2F)n1)OCC1CC1 [I.80-38, Cyclopropylmethyl {[5-(5-chloropyridin-2-yl)-1-(2,4-difluorophenyl)-1H-1,2,4-triazol-3-yl]oxy}acetate]
Efficacy of the safener (efficacy code) (summer wheat (TRZAS); safener 100 g/ha): 2

O=C(O)COc1nc(-c2ccc(F)cn2)n(-c2ccc(Cl)cc2F)n1 [I.33-49]
Efficacy of the safener (efficacy code) (summer wheat (TRZAS); safener 100 g/ha): 2

CCOC(=O)COc1nc(-c2ccc(Cl)cn2)n(-c2ccccc2F)n1 [I.29-2]
Efficacy of the safener (efficacy code) (summer wheat (TRZAS); safener 100 g/ha): 2
